Assay results reported in paper PMC11497264 (Chembiochem, 2024).
Like-named read-outs stand apart in the source and are kept apart here. Bridge positions count the residues as written; N and C are the ends. Peptide text beside a SMILES is read from it.

Target: T1, human GRP78 (Homo sapiens, UniProt P11021)
T1 construct: The full length human GRP78 protein recombinantly produced in Escherichia coli; 6xHis (inferred from capture on nickel-NTA chip); purchased Abcam (Cambridge, UK); host or cells: Escherichia coli
Assay: biochemical
Type: binding

T1 sequence (P11021 19-654): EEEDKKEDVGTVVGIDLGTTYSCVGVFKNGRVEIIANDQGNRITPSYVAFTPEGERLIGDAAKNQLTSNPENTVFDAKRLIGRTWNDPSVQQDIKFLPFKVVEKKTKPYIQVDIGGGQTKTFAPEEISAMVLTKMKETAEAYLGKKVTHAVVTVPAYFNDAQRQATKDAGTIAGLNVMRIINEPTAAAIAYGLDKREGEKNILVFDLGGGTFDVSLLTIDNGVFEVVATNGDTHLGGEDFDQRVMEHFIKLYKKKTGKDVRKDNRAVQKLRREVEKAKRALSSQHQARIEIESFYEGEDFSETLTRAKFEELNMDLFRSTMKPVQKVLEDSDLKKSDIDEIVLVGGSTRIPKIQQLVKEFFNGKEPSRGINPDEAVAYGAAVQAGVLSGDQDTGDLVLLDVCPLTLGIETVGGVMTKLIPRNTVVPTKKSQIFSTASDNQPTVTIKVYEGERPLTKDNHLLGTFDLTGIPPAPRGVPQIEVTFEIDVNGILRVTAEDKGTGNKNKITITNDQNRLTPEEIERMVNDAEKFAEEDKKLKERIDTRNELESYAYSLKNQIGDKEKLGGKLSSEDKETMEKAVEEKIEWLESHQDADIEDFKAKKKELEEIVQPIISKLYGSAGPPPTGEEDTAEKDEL

Compound: CC(C)C[C@@H]1NC(=O)[C@H](C)NC(=O)[C@H](C(C)C)NC(=O)[C@H]([C@@H](C)O)NC(=O)[C@@H](N)CSSC[C@@H](C(N)=O)NC(=O)[C@H](C(C)C)NC(=O)[C@H](CCCNC(=N)N)NC(=O)[C@H](C(C)C)NC(=O)[C@H](Cc2ccc(O)cc2)NC(=O)CNC(=O)CNC(=O)[C@@H]2CCCN2C1=O [Pep42, reference compound] (H-CTVALPGGYVRVC-NH2; disulfide 1-13)
- Kd (affinity of binding to GRP78): 3.4 mM
- kon (read-out: Ka1 (association rate constant 1)): 160 M⁻¹ s⁻¹
- koff (read-out: Kd1 (dissociation rate constant 1)): 0.678 s⁻¹
- koff (read-out: Kd2 (dissociation rate constant 2)): 0.0116 s⁻¹
